Where “and” joins values, the source holds several entries; their conditions need not be identical. Equal values may be shown once. Inconclusive results and toxic doses are left out. How the source made its calls: active means survival T/C of 150% or more; inactive means T/C below 125% in these data. Residues, ends and D or L forms follow the SMILES beside them.
System: CD2F1 mice, L1210 leukemia ip, survival T/C
Experiment: NCI In Vivo Anticancer Drug Screen. Data for tumor model L1210 Leukemia (intraperitoneal) in CD2F1 (CDF1) mice
Conditions: higher = longer survival
Outline: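 Implant tumor; dose compound or vehicle; measure endpoint in both groups; report treated divided by control.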

[1] = endpoint: mean survival time, dose: 50.0 mg/kg/injection, schedule: Q01DX009 (ip), vehicle: saline with Tween-80
[2] = endpoint: mean survival time, dose: 100.0 mg/kg/injection, schedule: Q01DX009 (ip), vehicle: saline with Tween-80
[3] = endpoint: mean survival time, dose: 200.0 mg/kg/injection, schedule: Q01DX009 (ip), vehicle: saline with Tween-80
[4] = endpoint: mean survival time, dose: 75.0 mg/kg/injection, schedule: Q04DX003 (ip), vehicle: saline
[5] = endpoint: mean survival time, dose: 150.0 mg/kg/injection, schedule: Q04DX003 (ip), vehicle: saline
[6] = endpoint: mean survival time, dose: 300.0 mg/kg/injection, schedule: Q04DX003 (ip), vehicle: saline
[7] = endpoint: mean survival time, dose: 100.0 mg/kg/injection, schedule: Q01DX001 (ip), vehicle: saline with Tween-80
[8] = endpoint: mean survival time, dose: 200.0 mg/kg/injection, schedule: Q01DX001 (ip), vehicle: saline with Tween-80
[9] = endpoint: mean survival time, dose: 400.0 mg/kg/injection, schedule: Q01DX001 (ip), vehicle: saline with Tween-80
[10] = endpoint: mean survival time, dose: 25.0 mg/kg/injection, schedule: Q01DX009 (ip), vehicle: saline with Tween-80
[11] = endpoint: mean survival time, dose: 100.0 mg/kg/injection, schedule: Q04DX003 (ip), vehicle: saline with Tween-80
[12] = endpoint: mean survival time, dose: 200.0 mg/kg/injection, schedule: Q04DX003 (ip), vehicle: saline with Tween-80
[13] = endpoint: mean survival time, dose: 400.0 mg/kg/injection, schedule: Q04DX003 (ip), vehicle: saline with Tween-80
[14] = endpoint: mean survival time, dose: 25.0 mg/kg/injection, schedule: Q04DX003 (ip), vehicle: saline
[15] = endpoint: mean survival time, dose: 50.0 mg/kg/injection, schedule: Q01DX009 (ip), vehicle: Klucel (hydroxypropylcellulose) (HPC)

Measured: T/C

CCOP1(=O)OCC(C(C)(C)C)CO1 (configuration not stated)
inactive: endpoint: mean survival time, dose: 12.5 mg/kg/injection, schedule: Q04DX003 (ip), vehicle: Klucel (hydroxypropylcellulose) (HPC) 102 % of control | endpoint: mean survival time, dose: 25.0 mg/kg/injection, schedule: Q04DX003 (ip), vehicle: Klucel (hydroxypropylcellulose) (HPC) 102 % of control

CC(=O)N(C)c1ccc(NC(=O)Nc2ccc(C)c(C)c2)cc1
inactive: [1] 91 % of control | [2] 91 % of control | [3] 88 % of control

C=C[Si](c1ccccc1)(c1ccccc1)c1ccccc1
inactive: [4] 95 % of control | [5] 97 % of control | [6] 97 % of control

COC(=O)C1CCC2C3CC=C4CC(O)CCC4(C)C3CCC12C (configuration not stated)
inactive: [7] 98 % of control | [8] 93 % of control | [9] 93 % of control

CC(=O)N(O)c1ccc2c(c1)Cc1ccccc1-2
inactive: [2] 98 % of control | [3] 101 % of control | endpoint: mean survival time, dose: 400.0 mg/kg/injection, schedule: Q01DX009 (ip), vehicle: saline with Tween-80 101 % of control

COC(=Nc1ccccc1)SSC(C)C
inactive: endpoint: mean survival time, dose: 6.25 mg/kg/injection, schedule: Q01DX009 (ip), vehicle: saline with Tween-80 93 % of control and 101 % of control | endpoint: mean survival time, dose: 12.5 mg/kg/injection, schedule: Q01DX009 (ip), vehicle: saline with Tween-80 97 % of control and 108 % of control | [10] 98 % of control and 104 % of control | [1] 98 % of control and 108 % of control | [2] 106 % of control | [3] 108 % of control

CCCCCCCCCCCCOB(OCCCCCCCCCCCC)OCCCCCCCCCCCC
inactive: [11] 95 % of control | [12] 103 % of control | [13] 94 % of control

CC[n+]1cccc2ccccc21
inactive: endpoint: mean survival time, dose: 18.8 mg/kg/injection, schedule: Q01DX009 (ip), vehicle: saline 95 % of control | [14] 96 % of control | endpoint: mean survival time, dose: 37.5 mg/kg/injection, schedule: Q01DX009 (ip), vehicle: saline 96 % of control

NC(N)=NCCCC(N)C(=O)NC(CCC(=O)O)C(=O)O (stereo not drawn) (H-Arg-Glu-OH; configuration not given here)
inactive: endpoint: mean survival time, dose: 25.0 mg/kg/injection, schedule: Q01DX009 (ip), vehicle: saline 91 % of control | endpoint: mean survival time, dose: 50.0 mg/kg/injection, schedule: Q01DX009 (ip), vehicle: saline 94 % of control | endpoint: mean survival time, dose: 100.0 mg/kg/injection, schedule: Q01DX009 (ip), vehicle: saline 89 % of control | endpoint: mean survival time, dose: 200.0 mg/kg/injection, schedule: Q01DX009 (ip), vehicle: saline 89 % of control | endpoint: mean survival time, dose: 400.0 mg/kg/injection, schedule: Q01DX009 (ip), vehicle: saline 93 % of control

Cn1c(-[n+]2ccccc2)nc2c1c(=O)[nH]c(=O)n2C
inactive: endpoint: mean survival time, dose: 12.5 mg/kg/injection, schedule: Q01DX005 (ip), vehicle: water 100 % of control | endpoint: mean survival time, dose: 25.0 mg/kg/injection, schedule: Q01DX005 (ip), vehicle: water 102 % of control | endpoint: mean survival time, dose: 50.0 mg/kg/injection, schedule: Q01DX005 (ip), vehicle: water 97 % of control | endpoint: mean survival time, dose: 100.0 mg/kg/injection, schedule: Q01DX005 (ip), vehicle: water 94 % of control | endpoint: mean survival time, dose: 200.0 mg/kg/injection, schedule: Q01DX005 (ip), vehicle: water 102 % of control

CCCCOC(=O)COc1ccc(F)cc1
inactive: endpoint: mean survival time, dose: 100.0 mg/kg/injection, schedule: Q04DX002 (ip), vehicle: saline with Tween-80 94 % of control | endpoint: mean survival time, dose: 200.0 mg/kg/injection, schedule: Q04DX002 (ip), vehicle: saline with Tween-80 94 % of control | endpoint: mean survival time, dose: 400.0 mg/kg/injection, schedule: Q04DX002 (ip), vehicle: saline with Tween-80 94 % of control

Oc1ccc2ccccc2c1/C=N/N=C/c1c(O)ccc2ccccc12
inactive: endpoint: mean survival time, dose: 12.5 mg/kg/injection, schedule: Q01DX009 (ip), vehicle: Klucel (hydroxypropylcellulose) (HPC) 100 % of control | endpoint: mean survival time, dose: 25.0 mg/kg/injection, schedule: Q01DX009 (ip), vehicle: Klucel (hydroxypropylcellulose) (HPC) 96 % of control | [15] 104 % of control

Cc1ccccc1CS
inactive: [2] 93 % of control | [11] 103 % of control | [3] 94 % of control | [12] 100 % of control | [13] 104 % of control

CCOC1=Cc2c(oc3c(C(C)(C)C)cc(OCC)cc23)OC(C(C)(C)C)=C1
inactive: endpoint: median survival time, dose: 1.56 mg/kg/injection, schedule: Q01DX009 (ip), vehicle: saline with Tween-80 95 % of control and 102 % of control | endpoint: median survival time, dose: 3.12 mg/kg/injection, schedule: Q01DX009 (ip), vehicle: saline with Tween-80 95 % of control and 102 % of control | endpoint: median survival time, dose: 6.25 mg/kg/injection, schedule: Q01DX009 (ip), vehicle: saline with Tween-80 101 % of control and 102 % of control | endpoint: median survival time, dose: 12.5 mg/kg/injection, schedule: Q01DX009 (ip), vehicle: saline with Tween-80 98 % of control and 103 % of control | endpoint: median survival time, dose: 25.0 mg/kg/injection, schedule: Q01DX009 (ip), vehicle: saline with Tween-80 98 % of control and 102 % of control | endpoint: median survival time, dose: 50.0 mg/kg/injection, schedule: Q01DX009 (ip), vehicle: saline with Tween-80 114 % of control and 98 % of control

C[N+]1=C(c2ccccc2)CCC(C(C)(C)C)C1 (configuration not stated)
inactive: endpoint: mean survival time, dose: 37.5 mg/kg/injection, schedule: Q04DX003 (ip), vehicle: saline 102 % of control | endpoint: mean survival time, dose: 75.0 mg/kg/injection, schedule: Q01DX001 (ip), vehicle: saline 95 % of control | [4] 96 % of control | endpoint: mean survival time, dose: 150.0 mg/kg/injection, schedule: Q01DX001 (ip), vehicle: saline 92 % of control | [5] 100 % of control

CCOc1cccc(Cc2cn(Cc3cccc(NC(=O)Nc4ccc(S(=O)(=O)F)cc4)c3)c(=O)[nH]c2=O)c1
inactive: [7] 86 % of control | [8] 92 % of control | [9] 86 % of control

O=CN(O)CC(=O)O.[Zn]
inactive: endpoint: mean survival time, dose: 12.5 mg/kg/injection, schedule: Q04DX003 (ip), vehicle: saline 96 % of control | [14] 95 % of control

O=C(O)c1cccc2c1-c1ccccc1C(Br)C2Br (configuration not stated)
inactive: [10] 93 % of control | endpoint: mean survival time, dose: 50.0 mg/kg/injection, schedule: Q01DX005 (ip), vehicle: saline with Tween-80 100 % of control | [1] 93 % of control | endpoint: mean survival time, dose: 100.0 mg/kg/injection, schedule: Q01DX005 (ip), vehicle: saline with Tween-80 88 % of control | [2] 89 % of control

CC1C(O)=C(c2ccccc2)P(=O)(Cc2ccccc2)C1C (configuration not stated)
inactive: [15] 104 % of control | endpoint: mean survival time, dose: 100.0 mg/kg/injection, schedule: Q01DX009 (ip), vehicle: Klucel (hydroxypropylcellulose) (HPC) 93 % of control | endpoint: mean survival time, dose: 200.0 mg/kg/injection, schedule: Q01DX009 (ip), vehicle: Klucel (hydroxypropylcellulose) (HPC) 93 % of control

CCCCCC(C)C1(CCCC)NC(C)(C)CC(C)O1 (configuration not stated)
inactive: endpoint: mean survival time, dose: 100.0 mg/kg/injection, schedule: Q04DX003 (ip), vehicle: saline 95 % of control | endpoint: mean survival time, dose: 200.0 mg/kg/injection, schedule: Q04DX003 (ip), vehicle: saline 90 % of control

CCCCCCCCC/C=C(/CC(=O)O)C(=O)O
inactive: [10] 92 % of control | [1] 96 % of control | [2] 102 % of control

O=C(Nc1ccc2ccccc2c1)OC1CCS(=O)(=O)C1 (configuration not stated)
inactive: [4] 102 % of control | [5] 102 % of control | [6] 98 % of control

COC(=O)C1=NNC(C(=O)OC)=NN1
inactive: endpoint: mean survival time, dose: 12.5 mg/kg/injection, schedule: Q01DX009 (ip), vehicle: water 95 % of control | endpoint: mean survival time, dose: 25.0 mg/kg/injection, schedule: Q01DX009 (ip), vehicle: water 95 % of control | endpoint: mean survival time, dose: 50.0 mg/kg/injection, schedule: Q01DX009 (ip), vehicle: water 98 % of control | endpoint: mean survival time, dose: 100.0 mg/kg/injection, schedule: Q01DX009 (ip), vehicle: water 105 % of control | endpoint: mean survival time, dose: 200.0 mg/kg/injection, schedule: Q01DX009 (ip), vehicle: water 90 % of control

COC(=O)NCCCCl
inactive: endpoint: mean survival time, dose: 37.5 mg/kg/injection, schedule: Q01DX007 (ip), vehicle: saline 94 % of control | endpoint: mean survival time, dose: 75.0 mg/kg/injection, schedule: Q01DX007 (ip), vehicle: saline 103 % of control | endpoint: mean survival time, dose: 150.0 mg/kg/injection, schedule: Q01DX007 (ip), vehicle: saline 97 % of control | endpoint: mean survival time, dose: 300.0 mg/kg/injection, schedule: Q01DX007 (ip), vehicle: saline 94 % of control | endpoint: mean survival time, dose: 600.0 mg/kg/injection, schedule: Q01DX007 (ip), vehicle: saline 94 % of control

CC(=O)OCC(OC(C)=O)C(OC(C)=O)C(OC(C)=O)C(S)S (configuration not stated)
inactive: [11] 103 % of control | [12] 109 % of control | [13] 101 % of control
